Data set [1] can be described thus: Glass transition point (Tg) by DSC. The data set is classed as physicochemical. The following applies: Compound A itself. How it is done: The glass transition point of a solid dispersion can be obtained by subjecting the solid dispersion to calorimetric measurements using DSC and plotting a curve of changes in the amount of heat. In more practical terms a sample of about 10 mg is weighed out onto an aluminum pan and calorimetry is carried out for temperatures from 0° C. and 150° C. with a rate of temperature increase of 5° C. per minute. In the process of heating the sample heat is absorbed or generated at the glass transition point and, as a result, the baseline of the calorimetric curve will shift downward. Extended lines are drawn for the two baselines, namely the original baseline and the shifted baseline, and the glass transition temperature is obtained from the intersection point of the ½ line between the two baselines and the calorimetric curve.
Particles of the solid dispersion (about 10 mg) of each example and comparative example were weighed out on an aluminum pan and calorimetric measurements were made at temperatures between 0° C. to 150° C. with a rate of temperature increase of 5° C. per minute. Heat was absorbed or generated at the glass transition point in the course of heating the sample and, as a result, the baseline of the calorimetric curve shifted downward. […]
On the technique in general: Differential scanning calorimetry records heat flow against a reference as temperature is scanned.

The nature of data set [2]: Solubility of Compound A in water and organic solvents. The data set is classed as physicochemical.

Converted amounts (≈) assume the structure as drawn. Where two headings read alike, the source gives them in different places.

Take `COc1ccc(-c2nc(OC)nn2-c2ccc(OC)cc2)cc1` [Compound A, 3-methoxy-1,5-bis(4-methoxyphenyl)-1H-1,2,4-triazole]: the “glass transition point of Compound A” value in data set [1] turned out to be 4 °C. In addition, the solubility in data set [2] (acetone, organic solvent or mixture, room temperature, read-out: solubility in organic solvent: acetone) came out at 82.2 mg/mL (≈ 264 mM); in data set [2] (ethanol, organic solvent or mixture, room temperature, read-out: solubility in organic solvent: ethanol) it was 15.9 mg/mL (≈ 51.1 mM); in data set [2] (polyethylene glycol, organic solvent or mixture, room temperature, read-out: solubility in organic solvent: polyethylene glycol), 6.3 mg/mL (≈ 20.2 mM); in data set [2] (water, 37° C., read-out: solubility in water), 0.0107 mg/mL (≈ 0.0344 mM).

What is called solubility is the concentration that dissolves in the medium under given conditions.

The record behind these values is patent US20130137739A1, “SOLID DISPERSION COMPRISING TRIAZOLE COMPOUND” (Astellas Pharma, Inc., priority 2010, published 2013).
